Measured values published in PMC4467461, “Small-molecule activation of SERCA2a SUMOylation for the treatment of heart failure” (Nature Communications, 2015).

Target: T1, SUMO E1 (Homo sapiens, UniProt Q9UBE0+Q9UBT2)
T1 construct: purchased R&D Systems
T1 sequence (Q9UBE0 1-346): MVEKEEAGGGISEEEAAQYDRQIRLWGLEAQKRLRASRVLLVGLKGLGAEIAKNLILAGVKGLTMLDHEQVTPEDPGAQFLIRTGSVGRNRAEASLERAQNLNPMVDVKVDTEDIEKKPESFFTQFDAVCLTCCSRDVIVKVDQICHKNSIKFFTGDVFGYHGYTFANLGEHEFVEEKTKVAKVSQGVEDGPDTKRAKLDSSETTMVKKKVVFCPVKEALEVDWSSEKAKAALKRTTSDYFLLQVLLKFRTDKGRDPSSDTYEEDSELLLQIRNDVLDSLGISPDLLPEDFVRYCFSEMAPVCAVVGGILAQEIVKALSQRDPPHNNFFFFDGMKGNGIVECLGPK
T1 sequence (Q9UBT2 1-640): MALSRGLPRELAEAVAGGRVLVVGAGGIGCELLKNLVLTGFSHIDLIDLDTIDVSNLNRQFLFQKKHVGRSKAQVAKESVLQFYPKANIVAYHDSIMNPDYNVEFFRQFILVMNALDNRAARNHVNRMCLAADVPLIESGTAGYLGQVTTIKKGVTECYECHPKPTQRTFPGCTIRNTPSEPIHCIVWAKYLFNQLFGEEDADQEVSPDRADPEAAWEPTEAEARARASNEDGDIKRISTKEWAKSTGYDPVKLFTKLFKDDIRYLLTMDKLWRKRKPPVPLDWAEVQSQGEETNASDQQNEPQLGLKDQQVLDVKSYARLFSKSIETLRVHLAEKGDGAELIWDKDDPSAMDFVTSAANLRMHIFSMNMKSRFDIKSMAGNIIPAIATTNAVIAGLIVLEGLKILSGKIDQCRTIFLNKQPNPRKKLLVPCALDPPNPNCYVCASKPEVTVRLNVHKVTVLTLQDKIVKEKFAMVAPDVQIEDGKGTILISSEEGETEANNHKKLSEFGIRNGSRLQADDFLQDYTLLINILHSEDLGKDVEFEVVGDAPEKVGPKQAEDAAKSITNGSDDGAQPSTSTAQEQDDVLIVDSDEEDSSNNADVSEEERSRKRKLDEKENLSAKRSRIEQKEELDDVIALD
Assay: In-vitro E1-SUMO-1 and E1-dependent E2-SUMO-1 thioester formation (gel shift / western blot)
Format: biochemical
Procedure: Figure 3 SUMO-specific activating enzyme, E1, is a direct target of N106. Mechanism of action of N106 on individual steps in the SUMOylation cascade in vitro. (a) Inorganic pyrophosphate resulting from ATP hydrolysis in E1-catalysed SUMO-1 activation in the presence of increasing concentration of N106 compound was assessed by fluorogenic pyrophosphate assay kit. Recombinant human SUMO-specific E1 (0.05 μM), human Ubc9 (0.25 μM), human SUMO-1 (12.5 μM) and ATP (1 mM) were incubated with increasing concentration of N106 for 30 min at 37 °C and quantified using a fluorescence microplate reader. (b) The SAE2-SUMO-1 conjugation was detected followed by western blotting with anti-SAE2 antibodies. SUMO E1 (0.05 μM), SUMO-1 (12.5 μM) and ATP (1 mM) were co-incubated with increasing concentration of N106 for 30 min at 37 °C. The reaction mixtures were separated on 7.5% SDS–PAGE gel under non-reducing conditions. (c) E2-SUMO-1 conjugation was visualized by western blotting with anti-Ubc9 antibody. SUMO E1 (0.05 μM), Ubc9 (0.25 μM), SUMO-1 (12.5 μM) and ATP (1 mM) were incubated without or with increasing concentration of N106 for 30 min at 37 °C. […] (e) ATP hydrolytic activity of WT and mutant SUMO E1 are determined. (f) The E1-SUMO-1 conjugation was detected followed by western blot analysis with anti-SAE2 antibody. *The SAE2-SUMO-1 conjugated bands. […]
Biochemical activity of SUMO-specific E1 enzymes was examined by ATPase assay and in-vitro gel-shifting assays. ATP hydrolysis activity of E1 enzymes was measured by using pyrophosphate assay kit (Abcam Inc.). […] The E1-thioester formation was analysed in reaction mixtures containing 0.05 μM E1, 12.5 μM SUMO-1 and 1 mM ATP with N106 or DMSO. The E1-dependent E2-SUMO-1 thioester formation was assessed using reaction containing 0.05 μM E1, 0.25 μM E2, 12.5 μM SUMO-1 and 1 mM ATP with N106 or DMSO. Assays were incubated at 37 °C for 30 min and were mixed with non-reducing sample buffer, and analysed in non-reducing condition. Western blotting using antibodies against SAE2 and Ubc9 detected the SUMO conjugations. […]

SMILES: COc1ccc(-c2nnc(Nc3nc4c(OC)cccc4s3)o2)cc1 [Compound N106, N-(4-methoxybenzo[d]thiazol-2-yl)-5-(4-methoxyphenyl)-1,3,4-oxadiazol-2-amine]
- maximal tolerated doses for in-vitro thioester formation between the SUMO E1 and SUMO-1 (30 min at 37 °C): ~20 µM
- SUMO-1 conjugation to SUMO E1 and E1-dependent thioester bond formation between SUMO E2 and SUMO-1 (at 50 μM concentration): less pronounced
- SUMO-1 conjugation to SUMO E1 and E1-dependent thioester bond formation between SUMO E2 and SUMO-1 (at over 100 μM concentration): inhibited
